Holding throughout (format): binding
Assay [1] deals with T1, H. influenzae TrmD (Haemophilus influenzae, UniProt P43912).
T1 construct: host or cells: E. coli BL21
As to the kind of experiment: Fluorescence polarization (FP) assay, tracer 3 (Cy5TPD), H. influenzae TrmD. Particulars: tracer, enzyme concentration varied; read-out: KD of fluorescent tracer, H. influenzae TrmD (FP). On the procedure:
(§1) Fluorescence polarization (FP) assays were performed as follows. The assays for H. influenzae TrmD have been described previously. All assays were conducted in technical triplicate using black 96-well half area plates. For the FP assays, a tracer (20 nM Cy5TPD for E. coli and H. influenzae TrmD, 10 nM tracer 4 for S. aureus TrmD) was mixed with the respective enzyme (2 μM E. coli TrmD, 2 μM H. influenzae TrmD, 500 nM S. aureus TrmD) in buffer (E. coli and H. influenzae TrmD: 50 mM HEPES, 500 mM NaCl, 5% Glycerol, pH 7.5, S. aureus TrmD: 40 mM Tris HCl, 100 mM NaCl, 10 mM MgCl2, 5% Glycerol, pH 7.5). The compounds were added in varying concentrations for K D-value determination. […] The Z-factor for tracer 4 was determined by measuring 48 replicates of the free tracer (positive controls, PC) and 48 replicates of a mixture of enzyme and tracer (negative controls, NC). The Z-factor is defined in terms of the means (μ) and standard deviations (σ) of the positive and negative controls and calculated as Z = 1–(3*(σnc + σpc)/(μnc–μpc)). […] Polarization values (mP) were determined from polarization-specific parallel and orthogonal fluorescence intensities. K D-values were calculated in GraphPad Prism 8.0.1 using the four-parameter Hill equation: y(% tracer bound) = bottom + ([ligand]-slope) × (top–bottom)/([ligand]-slope + K Dslope).
For orientation: Fluorescence polarisation rises when a labelled molecule tumbles more slowly, as on binding a larger partner.

The target of assay [2] is T2, S. aureus TrmD (Staphylococcus aureus, UniProt Q2FZ43).
T2 construct: made in house; host or cells: E. coli BL21
T2 sequence (Q2FZ43 1-245): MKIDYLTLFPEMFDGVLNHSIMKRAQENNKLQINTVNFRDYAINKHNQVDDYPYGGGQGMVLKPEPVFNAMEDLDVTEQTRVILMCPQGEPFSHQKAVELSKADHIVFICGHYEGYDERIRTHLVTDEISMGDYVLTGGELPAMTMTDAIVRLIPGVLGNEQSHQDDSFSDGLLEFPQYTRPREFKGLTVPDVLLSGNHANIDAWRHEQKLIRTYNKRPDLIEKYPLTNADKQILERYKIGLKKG
In words: Fluorescence polarization (FP) assay, tracer 4, S. aureus TrmD. Particulars: enzyme concentration varied, read-out: KD of fluorescent tracer, S. aureus TrmD (FP).

Assay [3] deals with T2, S. aureus TrmD. The assay is described as above. On the procedure:
To enable the screening of hundreds of nanomole-scale synthesized compounds, the implementation of a high-throughput-capable RNA methyltransferase (MTase) assay is considered fundamental. […] In this assay format, a fluorescent, SAM-pocket binding tracer can be displaced by the compound under investigation, and the resulting change in fluorescence polarization defines the read-out of the inhibitor compound’s affinity (Figure A).
as §1

The target in assay [4] is T2, S. aureus TrmD. As to the kind of experiment: Isothermal titration calorimetry (ITC) on recombinant S. aureus TrmD. As to the method: (§2) Experiments were conducted in the S. aureus TrmD SEC buffer (40 mM Tris, pH 7.5, 100 mM NaCl, 10 mM MgCl2, 5% glycerol) for the S. aureus enzyme. The H. influenzae enzyme was buffer exchanged into its ITC buffer (50 mM HEPES, pH 7.5; 500 mM NaCl; 5% glycerol) using Amicon Ultra-15 centrifugal filter units (Merck) prior to use. Compound 1 (BLD Pharmatech) and compound 2 were dissolved in DMSO to a final concentration of 20.0 and 11.6 mM, respectively, and diluted in ITC buffer to give ligand solutions at 1 and 0.58 mM, respectively. Due to a low enthalpy signal, a low c-value titration was performed for compound 1. In this type of experiment, the ligand is typically added at high concentration and in large excess relative to its binding partner, driving more binding events per injection. This causes the equivalence point to be reached after only a few injections and leads to the loss of the characteristic sigmoidal binding curve. TrmD was diluted to a final concentration of 50 μM, and DMSO was added to a final concentration of 5% to match the buffers. ITC measurements were performed using a MicroCal PEAQ-ITC Automated workstation (Malvern Panalytical) equipped with a 200 μL Hastelloy cell and a 40 μL injection syringe. […] Data were analyzed and fitted using the MicroCal PEAQ-ITC Analysis Software 1.21 and plotted in GraphPad Prism 8.0.1.
In general terms: In ITC the heat of successive injections is recorded.

Assay [5] addresses T1, H. influenzae TrmD. As to the kind of experiment: Isothermal titration calorimetry (ITC) on H. influenzae TrmD. On the procedure: as §2
For assay [6], the target named is T2, S. aureus TrmD. In words: nanoSAR direct-to-biology FP displacement screening of crude triazoles. Particulars: crude triazole at 1 μM, assuming full conversion; 500 nM TrmD, 10 nM tracer 4; read-out: % displaced tracer. Summed up: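 S. aureus TrmD (500 nM) with tracer 4 (10 nM) in Tris/NaCl/MgCl2/glycerol buffer, pH 7.5, was challenged with unpurified triazoles from in situ CuAAC of alkyne 7 with a 320-member azide library.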

[7] abbreviates: apparent affinity, purified compound, 500 nM TrmD, 10 nM tracer 4, read-out: KD S. aureus TrmD (FP displacement assay).
The mark [8] stands for this setting: KD S. aureus TrmD (FP displacement assay), apparent affinity, purified compound, 500 nM TrmD, 10 nM tracer 4.

“And” between values parts separate entries of the source, which are not always exact repeats. Equal values may be shown once. Where a name gives a salt, the structure may show the parent alone.

T1 sequence (P43912 whole entry): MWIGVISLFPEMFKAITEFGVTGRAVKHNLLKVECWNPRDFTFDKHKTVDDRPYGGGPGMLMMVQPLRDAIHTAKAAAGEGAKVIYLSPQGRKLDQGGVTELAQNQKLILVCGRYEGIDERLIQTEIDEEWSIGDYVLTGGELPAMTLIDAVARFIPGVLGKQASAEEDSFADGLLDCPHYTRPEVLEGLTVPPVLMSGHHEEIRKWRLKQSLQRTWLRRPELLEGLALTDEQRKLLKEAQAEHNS

On to `CN1/C(=C/C=C/C=C/C2=[N+](CCCCCC(=O)NCCCn3cc(CNC(=O)c4csc5nc[nH]c(=O)c45)nn3)c3ccccc3C2(C)C)C(C)(C)c2ccccc21` [Compound 3, reference compound], for which the Kd was 2 µM and 2.02 µM in assay [1]; 23.3 µM in assay [2].
On to `CC(=O)NCCCn1cc(-c2c[nH]c3nc[nH]c(=O)c23)nn1` [Compound 8a, N-(3-(4-(4-Oxo-4,7-dihydro-3H-pyrrolo[2,3-d]pyrimidin-5-yl)-1H-1,2,3-triazol-1-yl)propyl)acetamide], for which the Kd is 10.4 ± 1.8 µM in assay [3] (setting [7]) and 4.98 µM in assay [3] (crude nanomole-scale reaction mixture, read-out: KD(in situ) S. aureus TrmD (FP displacement assay)).
`C#Cc1c[nH]c2nc[nH]c(=O)c12` [Compound 7, 5-Ethynyl-3,7-dihydro-4H-pyrrolo[2,3-d]pyrimidin-4-one]: in assay [3] (setting [7]), the Kd is more than 100 µM.
With `CN1/C(=C/C=C/C=C/C2=[N+](CCCCCC(=O)NCCCn3cc(-c4c[nH]c5nc[nH]c(=O)c45)nn3)c3ccccc3C2(C)C)C(C)(C)c2ccccc21` [Compound 4, 3,3-Dimethyl-1-(6-oxo-6-((3-(4-(4-oxo-4,7-dihydro-3H-pyrrolo[2,3-d]pyrimidin-5-yl)-1H-1,2,3-triazol-1-yl)propyl)amino)hexyl)-2-((1E,3E)-5-((E)-1,3,3-trimethylindolin-2-ylidene)penta-1,3-dien-1-yl)-3H-indol-1-ium trifluoroacetate], in assay [2], the Kd was 0.659 µM and 0.66 µM.
Turning to `Oc1ncnc2scc(-c3ccccc3)c12` [Compound 1, O=C1NC=NC2=C1C(C3=CC=CC=C3)=CS2], the Kd in assay [3] (setting [8]) worked out at 28.6 µM; in assay [4], 19.8 µM; in assay [5] it was 24.3 ± 6.16 µM.
The matching figures for `NCc1ccc(CNC(=O)c2csc3nc[nH]c(=O)c23)cc1` [Compound 2, N-(4-(Aminomethyl)benzyl)-4-oxo-3,4-dihydrothieno[2,3-d]pyrimidine-5-carboxamide]: 13.8 µM, 12.9 µM and 4.55 ± 0.31 µM.
As to `CN(C)CCCn1cc(-c2c[nH]c3nc[nH]c(=O)c23)nn1` [Compound 01E08, O=C1NC=NC=2NC=C(C=3N=NN(C3)CCC[NH+](C)C)C12], in assay [6], the inhibition at 1 µM came out at 35%.
Consider `COc1ccccc1C(C)(C)n1cc(-c2c[nH]c3nc[nH]c(=O)c23)nn1` [Compound 02B08, O=C1NC=NC=2NC=C(C=3N=NN(C3)C(c4c(OC)cccc4)(C)C)C12], for which the inhibition at 1 µM in assay [6] turned out to be 5.49%.
The same measure, in the same setting: for `NC1(c2noc(Cn3cc(-c4c[nH]c5nc[nH]c(=O)c45)nn3)n2)CCCCCC1` [Compound 02E06, O=C1NC=NC=2NC=C(C=3N=NN(C3)CC=4ON=C(N4)C5([NH3+])CCCCCC5)C12] the value was 24%.
Same read-out and setting: for `COC(=O)c1ccc(Cn2cc(-c3c[nH]c4nc[nH]c(=O)c34)nn2)o1` [Compound 01G08, O=C(OC)C=1OC(=CC1)CN2N=NC(C=3C=4C(=O)NC=NC4NC3)=C2] the value was 44%; for `O=c1[nH]cnc2[nH]cc(-c3cn(C[C@H]4OCCOC45CCC5)nn3)c12` [Compound 01D02, O=C1NC=NC=2NC=C(C=3N=NN(C3)C[C@H]4OCCOC45CCC5)C12], 61%.
Consider `O=c1[nH]cnc2[nH]cc(-c3cn(Cc4ncoc4C4CCC4)nn3)c12` [Compound 02F08, O=C1NC=NC=2NC=C(C=3N=NN(C3)CC=4N=COC4C5CCC5)C12], for which the inhibition at 1 µM in assay [6] was 61%.
Still for that read-out and setting: for `Cc1ccc(-n2cc(-c3c[nH]c4nc[nH]c(=O)c34)nn2)cc1Cl` [Compound 02B03, Clc1c(ccc(N2N=NC(C=3C=4C(=O)NC=NC4NC3)=C2)c1)C] the value was 0.61%; for `O=c1[nH]cnc2[nH]cc(-c3cn([C@H]4CC5(CCCC5)Oc5ccc(Cl)cc54)nn3)c12` [Compound 02C05, Clc1cc2c(OC3(C[C@@H]2N4N=NC(C=5C=6C(=O)NC=NC6NC5)=C4)CCCC3)cc1], 55%; for `O=C(NCCn1cc(-c2c[nH]c3nc[nH]c(=O)c23)nn1)C(F)(F)F` [Compound 02F11, FC(F)(F)C(=O)NCCN1N=NC(C=2C=3C(=O)NC=NC3NC2)=C1], 41%.

(Values after publication PMC12751012, “Nanoscale Direct-to-Biology Optimization and Structural Insights into Selective S. aureus TrmD Inhibitors” (Journal of Medicinal Chemistry, 2025).)
